Measured values from PubChem BioAssay (NCI).
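Growth conditions: 96-well plates. Treatment: test compound, 48 hours, 5 concentrations. Analysis: linear interpolation between bracketing concentrations; unreached endpoints set to highest concentration. TGI denotes the concentration required for complete inhibition of growth.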

Experiments:
Test in all cases: NCI-60 cell line screen, 48 h
SK-MEL-5 melanoma = system: SK-MEL-5 melanoma
A498 renal = system: A498 renal
XF 498 CNS = system: XF 498 CNS
SNB-19 CNS = system: SNB-19 CNS
DMS 114 small cell lung = system: DMS 114 small cell lung
LOX IMVI melanoma = system: LOX IMVI melanoma
SN12C renal = system: SN12C renal
TK-10 renal = system: TK-10 renal
RPMI-8226 leukemia = system: RPMI-8226 leukemia
M19-MEL melanoma = system: M19-MEL melanoma
UACC-257 melanoma = system: UACC-257 melanoma
CAKI-1 renal = system: CAKI-1 renal
OVCAR-8 ovarian = system: OVCAR-8 ovarian
SK-MEL-28 melanoma = system: SK-MEL-28 melanoma
NCI-H522 lung = system: NCI-H522 lung
SF-539 CNS = system: SF-539 CNS
RXF-631 renal = system: RXF-631 renal
KM20L2 colon = system: KM20L2 colon
DMS 273 small cell lung = system: DMS 273 small cell lung
OVCAR-4 ovarian = system: OVCAR-4 ovarian
NCI-H226 lung = system: NCI-H226 lung
HCT-15 colon = system: HCT-15 colon
UACC-62 melanoma = system: UACC-62 melanoma
IGROV1 ovarian = system: IGROV1 ovarian
HOP-18 NSCLC = system: HOP-18 NSCLC
SF-295 CNS = system: SF-295 CNS
OVCAR-5 ovarian = system: OVCAR-5 ovarian
KM12 colon = system: KM12 colon
HT29 colon = system: HT29 colon
ACHN renal = system: ACHN renal
UO-31 renal = system: UO-31 renal
EKVX NSCLC = system: EKVX NSCLC
HCC-2998 colon = system: HCC-2998 colon
HOP-62 NSCLC = system: HOP-62 NSCLC
M14 melanoma = system: M14 melanoma
SW-620 colon = system: SW-620 colon
786-0 renal = system: 786-0 renal
SK-MEL-2 melanoma = system: SK-MEL-2 melanoma
NCI-H23 lung = system: NCI-H23 lung
LXFL 529 NSCLC = system: LXFL 529 NSCLC
COLO 205 colon = system: COLO 205 colon
OVCAR-3 ovarian = system: OVCAR-3 ovarian
K-562 leukemia = system: K-562 leukemia
SK-OV-3 ovarian = system: SK-OV-3 ovarian
SR leukemia = system: SR leukemia
HL-60(TB) leukemia = system: HL-60(TB) leukemia
U251 CNS = system: U251 CNS
SF-268 CNS = system: SF-268 CNS
SNB-75 CNS = system: SNB-75 CNS
DLD-1 colon = system: DLD-1 colon
SNB-78 CNS = system: SNB-78 CNS
HCT-116 colon = system: HCT-116 colon
A549 NSCLC = system: A549 NSCLC
MOLT-4 leukemia = system: MOLT-4 leukemia
NCI-H460 lung = system: NCI-H460 lung
CCRF-CEM leukemia = system: CCRF-CEM leukemia
MALME-3M melanoma = system: MALME-3M melanoma
RXF 393 renal = system: RXF 393 renal
HOP-92 NSCLC = system: HOP-92 NSCLC

Question: With `O=C(CC(=O)Nc1cccc(Cl)c1)NNCC(=O)Nc1nnc(-c2ccccc2)s1` as the compound, how does the TGI (SK-MEL-5 melanoma) read?
Answer: > 100 µM

Question: What about the TGI (A498 renal) of the same compound?
Answer: 86.8 µM

Question: What about the TGI (XF 498 CNS) of the same compound?
Answer: 76.3 µM

Question: And the TGI (SNB-19 CNS)?
Answer: > 100 µM

Question: And the TGI (DMS 114 small cell lung)?
Answer: > 100 µM

Question: And the TGI (LOX IMVI melanoma)?
Answer: > 100 µM

Question: What about the TGI (SN12C renal) of the same compound?
Answer: > 100 µM

Question: What about the TGI (TK-10 renal) of the same compound?
Answer: > 100 µM

Question: And the TGI (RPMI-8226 leukemia)?
Answer: 86.6 µM

Question: And the TGI (M19-MEL melanoma)?
Answer: > 100 µM

Question: And the TGI (UACC-257 melanoma)?
Answer: > 100 µM

Question: What about the TGI (CAKI-1 renal) of the same compound?
Answer: > 100 µM

Question: And the TGI (OVCAR-8 ovarian)?
Answer: > 100 µM

Question: And the TGI (SK-MEL-28 melanoma)?
Answer: > 100 µM

Question: What about the TGI (NCI-H522 lung) of the same compound?
Answer: > 100 µM

Question: What about the TGI (SF-539 CNS) of the same compound?
Answer: > 100 µM

Question: And the TGI (RXF-631 renal)?
Answer: > 100 µM

Question: What about the TGI (KM20L2 colon) of the same compound?
Answer: > 100 µM

Question: What about the TGI (DMS 273 small cell lung) of the same compound?
Answer: > 100 µM

Question: What about the TGI (OVCAR-4 ovarian) of the same compound?
Answer: 5.99 µM

Question: What about the TGI (NCI-H226 lung) of the same compound?
Answer: 75.7 µM

Question: And the TGI (HCT-15 colon)?
Answer: > 100 µM

Question: What about the TGI (UACC-62 melanoma) of the same compound?
Answer: > 100 µM

Question: And the TGI (IGROV1 ovarian)?
Answer: > 100 µM

Question: And the TGI (HOP-18 NSCLC)?
Answer: 58.6 µM

Question: And the TGI (SF-295 CNS)?
Answer: > 100 µM

Question: What about the TGI (OVCAR-5 ovarian) of the same compound?
Answer: > 100 µM

Question: What about the TGI (KM12 colon) of the same compound?
Answer: > 100 µM

Question: What about the TGI (HT29 colon) of the same compound?
Answer: > 100 µM

Question: What about the TGI (ACHN renal) of the same compound?
Answer: > 100 µM

Question: What about the TGI (UO-31 renal) of the same compound?
Answer: > 100 µM

Question: And the TGI (EKVX NSCLC)?
Answer: > 100 µM

Question: What about the TGI (HCC-2998 colon) of the same compound?
Answer: > 100 µM

Question: And the TGI (HOP-62 NSCLC)?
Answer: > 100 µM

Question: And the TGI (M14 melanoma)?
Answer: > 100 µM

Question: What about the TGI (SW-620 colon) of the same compound?
Answer: > 100 µM

Question: What about the TGI (786-0 renal) of the same compound?
Answer: 84.3 µM

Question: What about the TGI (SK-MEL-2 melanoma) of the same compound?
Answer: > 100 µM

Question: What about the TGI (NCI-H23 lung) of the same compound?
Answer: > 100 µM

Question: What about the TGI (LXFL 529 NSCLC) of the same compound?
Answer: > 100 µM

Question: What about the TGI (COLO 205 colon) of the same compound?
Answer: > 100 µM

Question: What about the TGI (OVCAR-3 ovarian) of the same compound?
Answer: > 100 µM

Question: And the TGI (K-562 leukemia)?
Answer: > 100 µM

Question: What about the TGI (SK-OV-3 ovarian) of the same compound?
Answer: 77.3 µM

Question: What about the TGI (SR leukemia) of the same compound?
Answer: > 100 µM

Question: And the TGI (HL-60(TB) leukemia)?
Answer: > 100 µM

Question: What about the TGI (U251 CNS) of the same compound?
Answer: > 100 µM

Question: What about the TGI (SF-268 CNS) of the same compound?
Answer: > 100 µM

Question: And the TGI (SNB-75 CNS)?
Answer: 33.8 µM

Question: And the TGI (DLD-1 colon)?
Answer: > 100 µM

Question: What about the TGI (SNB-78 CNS) of the same compound?
Answer: > 100 µM

Question: What about the TGI (HCT-116 colon) of the same compound?
Answer: > 100 µM

Question: And the TGI (A549 NSCLC)?
Answer: > 100 µM

Question: And the TGI (MOLT-4 leukemia)?
Answer: > 100 µM

Question: And the TGI (NCI-H460 lung)?
Answer: > 100 µM

Question: How did the TGI (SK-MEL-5 melanoma) turn out when `Nc1nc2sc3ccccc3c(=O)n2n1` was run?
Answer: > 100 µM

Question: What about the TGI (XF 498 CNS) of the same compound?
Answer: > 100 µM

Question: And the TGI (SNB-19 CNS)?
Answer: > 100 µM

Question: And the TGI (DMS 114 small cell lung)?
Answer: > 100 µM

Question: And the TGI (LOX IMVI melanoma)?
Answer: > 100 µM

Question: What about the TGI (SN12C renal) of the same compound?
Answer: > 100 µM

Question: And the TGI (TK-10 renal)?
Answer: > 100 µM

Question: What about the TGI (RPMI-8226 leukemia) of the same compound?
Answer: > 100 µM

Question: And the TGI (UACC-257 melanoma)?
Answer: > 100 µM

Question: What about the TGI (CAKI-1 renal) of the same compound?
Answer: > 100 µM

Question: And the TGI (OVCAR-8 ovarian)?
Answer: > 100 µM

Question: What about the TGI (SK-MEL-28 melanoma) of the same compound?
Answer: > 100 µM

Question: What about the TGI (SF-539 CNS) of the same compound?
Answer: > 100 µM

Question: What about the TGI (KM20L2 colon) of the same compound?
Answer: > 100 µM

Question: And the TGI (CCRF-CEM leukemia)?
Answer: > 100 µM

Question: What about the TGI (DMS 273 small cell lung) of the same compound?
Answer: > 100 µM

Question: And the TGI (OVCAR-4 ovarian)?
Answer: > 100 µM

Question: What about the TGI (NCI-H226 lung) of the same compound?
Answer: > 100 µM

Question: And the TGI (HCT-15 colon)?
Answer: > 100 µM

Question: And the TGI (UACC-62 melanoma)?
Answer: > 100 µM

Question: And the TGI (IGROV1 ovarian)?
Answer: > 100 µM

Question: What about the TGI (HOP-18 NSCLC) of the same compound?
Answer: > 100 µM

Question: And the TGI (SF-295 CNS)?
Answer: > 100 µM

Question: And the TGI (OVCAR-5 ovarian)?
Answer: > 100 µM

Question: And the TGI (KM12 colon)?
Answer: > 100 µM

Question: And the TGI (HT29 colon)?
Answer: > 100 µM

Question: What about the TGI (ACHN renal) of the same compound?
Answer: > 100 µM

Question: What about the TGI (UO-31 renal) of the same compound?
Answer: > 100 µM

Question: What about the TGI (EKVX NSCLC) of the same compound?
Answer: > 100 µM

Question: And the TGI (HCC-2998 colon)?
Answer: > 100 µM

Question: And the TGI (HOP-62 NSCLC)?
Answer: > 100 µM

Question: And the TGI (MALME-3M melanoma)?
Answer: > 100 µM

Question: What about the TGI (M14 melanoma) of the same compound?
Answer: > 100 µM

Question: And the TGI (SW-620 colon)?
Answer: > 100 µM

Question: And the TGI (786-0 renal)?
Answer: > 100 µM

Question: And the TGI (SK-MEL-2 melanoma)?
Answer: > 100 µM

Question: And the TGI (NCI-H23 lung)?
Answer: > 100 µM

Question: What about the TGI (LXFL 529 NSCLC) of the same compound?
Answer: > 100 µM

Question: What about the TGI (COLO 205 colon) of the same compound?
Answer: > 100 µM

Question: What about the TGI (OVCAR-3 ovarian) of the same compound?
Answer: > 100 µM

Question: What about the TGI (K-562 leukemia) of the same compound?
Answer: > 100 µM

Question: And the TGI (RXF 393 renal)?
Answer: > 100 µM

Question: And the TGI (SK-OV-3 ovarian)?
Answer: > 100 µM

Question: What about the TGI (SR leukemia) of the same compound?
Answer: > 100 µM

Question: What about the TGI (HL-60(TB) leukemia) of the same compound?
Answer: > 100 µM

Question: And the TGI (HOP-92 NSCLC)?
Answer: > 100 µM

Question: What about the TGI (U251 CNS) of the same compound?
Answer: > 100 µM

Question: And the TGI (SF-268 CNS)?
Answer: > 100 µM

Question: And the TGI (SNB-75 CNS)?
Answer: > 100 µM

Question: And the TGI (DLD-1 colon)?
Answer: > 100 µM

Question: What about the TGI (SNB-78 CNS) of the same compound?
Answer: > 100 µM

Question: And the TGI (HCT-116 colon)?
Answer: > 100 µM

Question: What about the TGI (A549 NSCLC) of the same compound?
Answer: > 100 µM

Question: And the TGI (MOLT-4 leukemia)?
Answer: > 100 µM

Question: And the TGI (NCI-H460 lung)?
Answer: > 100 µM
